From patent publication US20180057565A1, “STABILIZED POLYPEPTIDE INSULIN RECEPTOR MODULATORS” (President and Fellows of Harvard College, priority 2012, published 2018)
pIC50, pKd: −log10 of the molar value. Bridge positions count the residues as written; N and C are the ends. Square brackets hold non-standard residues; d marks the D form. Peptide text beside a SMILES is read from it. R8 = C=CCCCCCC[C@@](C)(N)C(=O)O; S5 = C=CCCC[C@](C)(N)C(=O)O

How the values were obtained:
[1] = biological target: T1, IRβ Tyr1150/1151 (Homo sapiens, UniProt P06213); test: Immunoblotting of IR auto-phosphorylation in CHO-IR cells; assay type: cell-based; details: 10 μM peptides in the presence of 50 nM insulin
T1 construct: expressed in transfected cells; host or cells: CHO-IR (CHO cells stably expressing IR, from the Morris White lab)
Protocol: To perform this type of direct assay, a CHO-IR cell line that stably expresses IR (provided by Morris White lab) was treated with SIRB peptides to detect auto-phosphorylation of IRβ Tyr1150/1151 (Cell signaling) by western blot.
CHO-IR cells were seeded in 24-well plates and grown in Ham's F-12, 10% FBS medium to >80% confluent (in ˜48 hours). The cells are starved in Ham's F-12 medium without FBS for two hours prior to experiment.
For agonistic studies, cells were incubated in fresh Ham's F-12 without FBS (negative control and baseline for normalization) or the same medium with 50 nM insulin (positive control and 100% activity for normalization). Experimental wells were incubated in the same medium containing various concentrations of peptide (typically 1 uM, 10 uM, and 100 uM). All cells were incubated at 37° C. for 15 min or 30 min.
For antagonistic studies, the experiment could be done with or without pre-treatment with peptides. In the case without, cells were incubated in fresh Ham's F-12 without FBS (negative control and baseline for normalization) or the same medium with 50 nM insulin (positive control and 100% activity for normalization).
Experimental wells were incubated in the same medium containing various concentrations of peptide (typically 1 uM, 10 uM, and 100 uM) AND 50 nM insulin. All cells were incubated at 37 C. for 15 min. […]

[2] = test system: phosphor-Akt S473; test: Dose-response ELISA of phospho-Akt S473 in CHO-IR cell lysates; assay type: cell-based; details: 50 nM insulin
Protocol: FIG. 6 depicts the dose-response of antagonist SIRB-B5. CHO-IR cells were treated with 50 nM insulin and increasing concentrations of SIRB-B5. ELISA assays of phosphor-IR Y1150/1151 and phosphor-Akt S473 were performed with cell lysates.
For further verification of biological activity, the SIRB peptide library was screened again using IR auto-phosphorylation as an indicator. […] A possible explanation for the differential plateau values is that phosphorylation of Akt1 is controlled by many other pathways as well and thus difficult to abolish completely.

[3] = biological target: T2, L1-CR-L2 (Homo sapiens, UniProt P06213); test: Affinity pull-down of IR construct by biotinylated peptide on streptavidin beads; details: 1% BSA in binding buffer, Western blot of His5 tag
T2 construct: made in house; host or cells: HEK293 (stably transfected; protein used from expression medium)
Description: (§1) FIGS. 8A-8C depict the affinity pull-down of IR by SIRB-B5. 1% BSA added to binding buffer. FIG. 8A depicts the pull-down assay: Biotinylated SIRB-B5 could be immobilized on streptavidincoated beads and pull down IR from expression medium. Precipitated protein could be visualized by Western blot of His5 tag. FIG. 8B depicts L1-CR-L2 pulled down by SIRB-B5. FIG. 8C depicts mIR-Fn1-Ex10 pulled down by SIRB-B5 and competition by insulin.

[4] = test system: mIR-Fn1-Ex10; test: as above; details: 1% BSA in binding buffer, competition by insulin
Description: as §1

[5] = biological target: T3, IGF-1R (Homo sapiens, UniProt P08069); test: IGF-1R phosphorylation Western blot after immunoprecipitation, HepG2 cells with IGF1; assay type: cell-based; details: in the presence of IGF1
T3 construct: host or cells: HepG2
T3 sequence (P08069 31-736 limits assumed): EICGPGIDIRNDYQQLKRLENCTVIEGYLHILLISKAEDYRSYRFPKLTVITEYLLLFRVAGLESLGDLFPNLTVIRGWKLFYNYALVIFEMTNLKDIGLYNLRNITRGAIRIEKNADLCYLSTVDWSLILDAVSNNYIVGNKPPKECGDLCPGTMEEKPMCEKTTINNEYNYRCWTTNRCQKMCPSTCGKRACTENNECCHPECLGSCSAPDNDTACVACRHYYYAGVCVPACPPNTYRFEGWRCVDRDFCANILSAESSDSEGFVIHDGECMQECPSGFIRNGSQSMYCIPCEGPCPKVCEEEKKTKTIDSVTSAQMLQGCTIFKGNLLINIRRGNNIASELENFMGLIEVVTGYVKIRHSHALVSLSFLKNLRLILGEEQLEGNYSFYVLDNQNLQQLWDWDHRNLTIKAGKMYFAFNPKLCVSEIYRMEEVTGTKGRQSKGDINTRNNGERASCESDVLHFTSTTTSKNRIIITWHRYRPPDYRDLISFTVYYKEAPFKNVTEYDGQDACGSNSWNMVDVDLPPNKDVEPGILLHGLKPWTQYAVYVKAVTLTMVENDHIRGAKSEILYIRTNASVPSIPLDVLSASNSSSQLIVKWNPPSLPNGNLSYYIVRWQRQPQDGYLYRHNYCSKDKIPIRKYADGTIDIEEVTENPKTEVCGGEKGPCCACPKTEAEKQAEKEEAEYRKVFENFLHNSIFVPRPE
T3 sequence (P08069 741-1367 partner limits assumed): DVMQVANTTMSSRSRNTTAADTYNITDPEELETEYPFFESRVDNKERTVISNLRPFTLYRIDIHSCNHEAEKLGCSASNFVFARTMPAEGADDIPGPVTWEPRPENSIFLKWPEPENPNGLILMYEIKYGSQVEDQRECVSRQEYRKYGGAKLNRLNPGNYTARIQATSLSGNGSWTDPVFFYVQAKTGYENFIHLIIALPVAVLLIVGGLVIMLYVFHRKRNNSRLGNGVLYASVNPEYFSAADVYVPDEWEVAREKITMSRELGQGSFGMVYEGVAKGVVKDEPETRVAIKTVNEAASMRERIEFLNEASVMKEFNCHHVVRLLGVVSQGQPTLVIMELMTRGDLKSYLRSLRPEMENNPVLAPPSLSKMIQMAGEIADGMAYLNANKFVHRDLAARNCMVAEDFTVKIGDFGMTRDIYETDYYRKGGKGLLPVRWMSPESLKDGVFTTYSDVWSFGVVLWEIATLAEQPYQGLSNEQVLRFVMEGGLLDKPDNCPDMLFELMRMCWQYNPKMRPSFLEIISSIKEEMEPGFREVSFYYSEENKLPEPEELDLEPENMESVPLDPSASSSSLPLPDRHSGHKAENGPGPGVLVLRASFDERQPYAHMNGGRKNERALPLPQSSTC
Protocol: FIG. 11 depicts SIRB-B5 antagonism on IGF-1R. HepG2 cells were treated with SIRB-B5 in the presence of IGF1. IGF-1R was immunoprecipitated to be distinguished from IR on a Phospho-IR/IGF-1R Western blot.

[6] = test system: phosphorylation of Akt1 at Ser473; test: Phospho-Akt1 (Ser473) sandwich ELISA in HepG2 cells, antagonism and agonism screening; assay type: cell-based, human
Protocol: We note that although S371 has a high affinity to IR, it can barely induce downstream effects such as lipogenesis in rat adipocytes, which may reconcile with the result of no increase in downstream Akt phosphorylation. The effect of the peptides on insulin signaling was determined using a sandwich ELISA assay kit (Cell Signaling) designed to measure phosphorylation of Akt Ser473, a downstream target in the insulin signaling pathway. For each compound, cells were treated both in the presence and absence of insulin to reveal either antagonism or agonism, respectively, of insulin signaling.
Preparation: insulin stock solution at 50 μM (0.3 mg/ml or 30 mg/100 ml). To make stock: dissolved 10 mg in 1 ml 0.01 N HCl, heat at 37° C. to dissolve, then added to 32 ml, PBS, sterile filtered and stored at −20 C. Working stock would stay in good quality for 1 month at 4° C. […]
For the phospho-Akt1 ELISA assay, clarified lysate was first quantified using the standard BCA method, and all samples were adjusted to have the same total protein concentration. […]
The following day, wells were drained and washed four times with 1× Wash Buffer. […] Chemiluminescence was read under RLU mode in the […] SpectraMax Plate Reader at […] within 1-10 minutes of addition of substrate.

[7] = test system: rat adipocytes; details: cited from earlier work
[8] = biological target: IR (Homo sapiens, UniProt P06213); details: read-out: affinity to the IR (kD); cited from earlier work

| Compound | effect on insulin-induced auto-phosphorylation of IR (Phospho-IR western blot) [1] | pIC50 ([2]; CHO-IR cells, read-out: IC50, inhibition of insulin-induced phosphorylation of Akt) | Akt phosphorylation, % of control ([2]; maximal dose of 100 μM peptide) [%] | pull-down of L1-CR-L2 [3] | pull-down of mIR-Fn1-Ex10 [4] | antagonism on IGF-1R [5] | reduction of the insulin-induced Akt-S473 phosphorylation signal ([6]; 10 μM peptide in the presence of 50 nM insulin) [%] | agonistic effect on Akt phosphorylation, peptide alone ([6]; absence of insulin) | induction of lipogenesis [7] | pKd [8] |
| --- | --- | --- | --- | --- | --- | --- | --- | --- | --- | --- |
| CC(C)C[C@H](NC(=O)[C@H](CCC(N)=O)NC(=O)[C@H](CCCNC(=N)N)NC(=O)[C@]1(C)CCCC=CCCCCCC[C@@](C)(NC(=O)[C@H](CC(=O)O)NC(=O)[C@H](CC(C)C)NC(=O)[C@H](CO)NC(=O)CN)C(=O)N[C@@H](CO)C(=O)N[C@@H](Cc2ccccc2)C(=O)N[C@@H](Cc2ccc(O)cc2)C(=O)N[C@@H](CC(=O)O)C(=O)N[C@@H](Cc2c[nH]c3ccccc23)C(=O)N[C@@H](Cc2ccccc2)C(=O)N1)C(=O)NCC(N)=O [SIRB-B5] (H-GSLD[R8]SFYDWF[S5]RQLG-NH2; staple 5-12; C-terminus assumed) | significant reduction | 5.74 | 16 | pulled down | pulled down | antagonism |  |  |  |  |
| S371: previously reported insulin-mimetic site 1 peptide of 16 residues from phage display; lead for stapling (GSLDESFYDWFERQLG) |  |  |  |  |  |  | 20 | no trace of any increase in phosphorylation | barely induce | 7.40 |
